According to patent US20180243465A1, “HEMOSTATIC MATERIAL” (BAXTER INTERNATIONAL INC., priority 2015, published 2018):
No end group written: not given here. PVA‑NB hydrogel particulates = not defined here

Columns and labels:
whole blood = assay: Rotational thromboelastometry (ROTEM) of recalcified citrated whole blood; format: cell-based, human; conditions: for clotting time (CT) vs saline control / clot formation time (CFT) vs saline control: 1 mM; for clotting time (CT) vs saline control: FIG. 8A; for clot formation time (CFT) vs saline control: FIG. 8B; for clotting time (CT) as % of the physiological CT: whole blood
Description: ROTEM (TEM Innovation, Germany) was applied to monitor the interactions of platelet-activating polymers and whole blood over time. ROTEM system contains an oscillating sensor pin that is immersed in a temperature-controlled cuvette containing the blood sample. Four measurements can be performed in parallel in the same device. Generally, coagulation of the citrated blood sample is initiated by re-calcification. The formation kinetics of a fibrin clot could be monitored mechanically and calculated by an integrated computer to the typical curves and numerical parameters.
Blood was collected from three un-medicated and healthy donors using minimal stasis from an antecubital vein through a 21-gauge needle. After discarding the first 3 ml, blood was collected in 3.5 ml tubes (Vacuette; Greiner Bio-One) containing 0.3 ml buffered 3.2% sodium citrate. The samples were kept on a pre-warming stage at 37° C. for at least 10 min prior to analysis and were processed within 3 h. ROTEM analysis of the whole blood sample was initiated by recalcification with the addition of 20 μl of CaCl2 (star-TEM®, 200 mM). Polymer solutions and/or polymer suspensions were added directly to the cuvette immediately after recalcification of the citrated blood and mixed by gently pipetting up and down as previously reported.^[21] The final reaction volume per ROTEM cuvette was 370 μl, consisting of 300 μl citrated whole blood, 20 μl CaCl2 and 50 μl polymer solution or polymer suspension.
We next studied the hemostatic efficacy of PVA-TRAP6 in comparison with TRAP6 and PVA-NB using rotational thromboelastometry (ROTEM),^[21, 22] which is a clinical diagnostic tool allowing in situ characterization of viscoelastic properties of blood clot during coagulation. […] Clotting time (CT) refers to the latency until the clot reaches a firmness of 2 mm while maximum clot firmness (MCF) refers to the maximum amplitude of the curve, which indicates the absolute strength of the clot.

platelets [1] = assay: FACS analysis of platelet activation (CD41/CD62p co-expression); format: cell-based, human
Method: The blood of two unmedicated and healthy donors was collected and stabilized by sodium citrate. […] Twenty microliter of TRAP6-C solution (14 mg mL^−1) and/or 20 μL of NaCl solution (0.9%) were added as the positive control and the negative control, respectively. The incubated mixture was mixed with 300 μL of 1% paraformaldehyde for 15 min at room temperature. After washing and centrifugation a double immuno-staining was performed using 20 μL of phycoerythrin (PE) labeled monoclonal antibody directed against CD41 and 20 μL of allophycocyanin (APC) labeled monoclonal antibody directed against CD62P. Isotype controls were incubated with mouse IgG antibodies conjugated with APC or PE dye, respectively (all antibodies were purchased from BD Biosciences, Heidelberg, Germany). After 30 min incubation at room temperature the activation state of the platelets was determined using fluorescence flow cytometry. Expression of the platelet activation marker CD62P and the constitutively present platelet marker CD41 were detected using a Beckmann Coulter Cytomics FC-500 equipped with Uniphase Argon ion laser, 488 nm, 20 mW output. Overall 100 000 platelets were measured per sample and analyzed with the Cytomics CXP software. The experiment was repeated twice.
We next utilized flow cytometry (FACS) to quantify the extent of platelet activation. Platelets can be distinguished from other blood cells by the constitutive expression of the surface antigen CD41, which recognizes the platelet membrane glycoprotein GpIIb which is non-covalently associated with GpIIIa (the integrin beta 3 chain) to form the GpIIb/IIIa complex. Importantly, the CD62p (P-selectin) membrane glycoprotein is exclusively expressed on activated platelets. The CD62p marker was used to identify the extent of activation in human platelets after incubation with the studied materials (PVA-TRAP6, TRAP6, PVA-NB, and NaCl).

platelets [2] = assay: Multiplate platelet aggregation assay in hirudinized whole blood; format: cell-based, human; conditions: for aggregation area: 0.1 mM TRAP6 equivalent, 6 min measurement
Method: The principle of Multiplate test is based on the fact that platelets become sticky upon activation, and thus prone to adhere and aggregate on the metal sensor wires in the Multiplate test cuvette. The sensor wires are made of highly conductive copper, which is silver-coated. As activated platelets adhere and aggregate on the sensor wires, the electrical resistance between the wires rises, which can be monitored in real time. For each measurement, 300 μL of saline and 300 μL of hirudinized whole blood was added sequentially to a Multiplate cuvette. After 3 min incubation at 37° C., 20 μL of sample solution was added and at the same time the program started to collect signals. The Multiplate device allows 4 measurements in parallel. Each measurement was performed for 6 min and in duplicate.
In order to quantify the extent of platelet activation, we utilized Multiplate assay to investigate the influence of PVA-TRAP6, TRAP6 and PVA-NB on platelet aggregation. The principle of this method is based on the fact that platelets become sticky upon activation, and thus prone to adhere and aggregate on the metal sensor wires in the Multiplate test cuvette. As activated platelets adhere and aggregate on the sensor wires, the electrical resistance between the wires rises, which can be continuously monitored. […] One key parameter of Multiplate assay is aggregation area (in Units), i.e. the area underneath the aggregation curve.

platelets [3] = conditions: from reference [12]; cited from earlier work

Method for C2C12 myoblasts: Cytotoxicities of PVA, PVA-NB and PVA-TRAP6 macromer solutions were evaluated via MTT assay. C2C12 cells were cultured in Dulbecco's Modified Eagles Medium (DMEM) supplemented with 5% fetal calf serum (FCS), 1% L-Glutamine, 1% Penicillin/Streptomycin (all from Sigma-Aldrich, Austria). Macromer solutions with three concentrations (5%, 1% and 0.1%) were prepared in DMEM culture medium. C2C12 cells were then seeded in a 96-well plate at a density of 5×10^3 cells per well in 200 μL of culture medium. After 24 h incubation (37° C., 5% CO2), 100 μL of the respective macromer solutions were added to the cells in triplicates. After 24 h incubation, cells were washed twice with sterile PBS before the addition of 100 μL thiazolyl blue tetrazolium bromide (MTT) working solution (5 mg/mL in PBS). After 1 h incubation, the liquid was discarded and 100 μl of DMSO was added to dissolve the formazan crystals. Finally, the absorbance was measured at 540 nm using a microplate reader.

PEG-TRAP6: PEG-10k-NHS reacted with the N-terminus of TRAP6, unreacted NHS groups blocked with glycine ({PEG 10 kDa}-SFLLRNPNC; also: unreacted NHS groups of PEG blocked with glycine) [reference compound]
clotting time (CT) vs saline control (whole blood): this effect was lost
clot formation time (CFT) vs saline control (whole blood): this effect was lost

PVA-TRAP6-P: insoluble crosslinked PVA-NB hydrogel particulates surface-functionalized with TRAP6-Cys peptide (SFLLRNPNC(PVA‑NB hydrogel particulates); reading uncertain)
clotting time (CT) as % of the physiological CT (whole blood; particulate suspension 10 wt % in saline): ~50%
platelet activation vs soluble TRAP6 control (FACS) (platelets [1]; particulates): comparable extent as soluble TRAP6 control
percentage of activated platelets (CD41+/CD62p+) (platelets [1]; particulates, 15 min incubation, whole blood): ~55%

PVA-TRAP6: water-soluble conjugate of cysteine-containing TRAP6 peptide (SFLLRNPNC) on PVA-norbornene backbone by thiol-ene photo-click conjugation (SFLLRNPNC(PVA‑norbornene 22 kDa))
clotting time (CT) (whole blood; 0.1 mM TRAP6 equivalent, compared with TRAP6 0.1 mM): very comparable to that of TRAP6
maximum clot firmness (MCF) (whole blood; 0.1 mM, compared with TRAP6 control): relatively less than that of TRAP6 control
clotting time (CT) vs saline control (whole blood): significantly shorten
clot formation time (CFT) vs saline control (whole blood): significantly shorten
clotting time (CT) as % of the physiological CT (whole blood; 0.1% PVA-TRAP6 solution): ~45%
optimal hemostatic concentration (whole blood; peptide concentrations tested 0.01, 0.1, 1 mM, CT): 0.1 mM
platelet aggregation curve (platelets [2]; 0.1 mM): comparable to that of TRAP6
aggregation area (platelets [2]): 130 U
total platelet aggregation area (platelets [2]; 1 mM, FIG. 9A): comparable to that of TRAP6
platelet activation (CD41/CD62P co-expression) (platelets [1]; 1 mM, FIG. 9B): very similar level as TRAP6 control
CD41/CD62p co-expression (CD62p expression in CD41 positive cells) (platelets [1]; 15 min incubation, 0.1 mM, soluble system): ~80%
cytotoxicity (MTT assay) (C2C12 myoblasts): nontoxic

SFLLRN [TRAP6, reference compound]
clotting time (CT) vs saline control (whole blood): significant decrease
clot formation time (CFT) vs saline control (whole blood): significant decrease
dose influence on CT (whole blood; peptide concentrations 0.01, 0.1, 1 mM): no significant dose influences
aggregation area (platelets [2]): 147 U
effective TRAP6-concentration for platelet activation (platelets [3]): 5 to 100 µM
